# Like-named read-outs stand apart in the source and are kept apart here.
# Tests used:
# [1] = test system: Staphylococcus aureus 694 E; assay: In vitro anti-bacterial activity test (MIC, two-fold dilution method), Table 2 strains; format: cell-based
# [2] = test system: Pseudomonas aeruginosa 1771 M; assay: In vitro anti-bacterial activity test (MIC, two-fold dilution method) against the standard strains; format: cell-based; conditions: Table 1 strain 15: Pseudomonas aeruginosa 1771 M
# [3] = test system: Staphylococcus aureus 697 E; assay: In vitro anti-bacterial activity test (MIC, two-fold dilution method), Table 2 strains; format: cell-based; conditions: Table 2 strain 10: Staphylococcus aureus 697 E
# P. mirabilis = assay: Preventive effect against the systemic infection; format: in vivo; conditions: Proteus mirabilis, 168 h, NMRI mice, survival on day 7, read-out: ED₅₀
# Description: (§1) 10 fold of the pathogen which leads to 100% lethality were injected intraperitoneally to male and female NMRI mice weighing 18 to 20g. Immediately and after 4 hours, the dose of test compounds which was determined by two-fold serial dilution method was administered orally or subcutaneously; and on day 7, the effectiveness was evaluated in terms of ED₅₀ calculated from the number of survived mice by the probit analysis.
# S. aureus 17740 = assay: Preventive effect against the systemic infection; format: in vivo; conditions: Staphylococcus aureus, 168 h, Oral Administration, NMRI mice, survival on day 7, read-out: ED₅₀
# Description: as §1
# [4] = test system: Staphylococcus aureus 121 E; assay: In vitro anti-bacterial activity test (MIC, two-fold dilution method), Table 2 strains; format: cell-based
# Escherichia coli DC 2 = assay: In vitro anti-bacterial activity test (MIC, two-fold dilution method) against the standard strains; format: cell-based; conditions: DC2; Table 1 strain 9: Escherichia coli DC 2; read-out: MIC
# [5] = test system: Staphylococcus aureus 701 E; assay: In vitro anti-bacterial activity test (MIC, two-fold dilution method), Table 2 strains; format: cell-based
# Escherichia coli DC 0 [6] = assay: In vitro anti-bacterial activity test (MIC, two-fold dilution method) against the standard strains; format: cell-based; conditions: DC0; Table 1 strain 8: Escherichia coli DC 0
# [7] = test system: Streptococcus faecium MD 8b; assay: as above; format: cell-based; conditions: Enterococcus faecium, MD8B
# [8] = test system: Staphylococcus aureus 693 E; assay: In vitro anti-bacterial activity test (MIC, two-fold dilution method), Table 2 strains; format: cell-based
# [9] = test system: Staphylococcus aureus 703 E; assay: as above; format: cell-based
# [10] = test system: Streptococcus pyogenes 77 A; assay: In vitro anti-bacterial activity test (MIC, two-fold dilution method) against the standard strains; format: cell-based
# [11] = test system: Streptococcus pyogenes 308 A; assay: as above; format: cell-based; conditions: Table 1 strain 1: Streptococcus pyogenes 308 A
# [12] = test system: Staphylococcus aureus 208 E; assay: In vitro anti-bacterial activity test (MIC, two-fold dilution method), Table 2 strains; format: cell-based
# [13] = test system: Staphylococcus aureus 285; assay: In vitro anti-bacterial activity test (MIC, two-fold dilution method) against the standard strains; format: cell-based
# [14] = test system: Klebsiella aerogenes 1082 E; assay: as above; format: cell-based; conditions: Table 1 strain 17: Klebsiella aerogenes 1082 E
# [15] = test system: Staphylococcus aureus 695 E; assay: In vitro anti-bacterial activity test (MIC, two-fold dilution method), Table 2 strains; format: cell-based
# Escherichia coli 1507 E = assay: In vitro anti-bacterial activity test (MIC, two-fold dilution method) against the standard strains; format: cell-based; conditions: Table 1 strain 11: Escherichia coli 1507 E
# [16] = test system: Pseudomonas aeruginosa 1592 E; assay: as above; format: cell-based; conditions: Table 1 strain 13: Pseudomonas aeruginosa 1592 E
# [17] = test system: Staphylococcus aureus 690 E; assay: In vitro anti-bacterial activity test (MIC, two-fold dilution method), Table 2 strains; format: cell-based
# [18] = test system: Staphylococcus aureus 711 E; assay: as above; format: cell-based
# Escherichia coli DC 0 [19] = assay: In vitro anti-bacterial activity test (MIC, two-fold dilution method) against the standard strains; format: cell-based; conditions: DC0; Table 1 strain 7: Escherichia coli DC 0
# [20] = test system: Staphylococcus aureus 714 E; assay: In vitro anti-bacterial activity test (MIC, two-fold dilution method), Table 2 strains; format: cell-based
# [21] = test system: Staphylococcus aureus 705 E; assay: as above; format: cell-based
# [22] = test system: Staphylococcus aureus 692 E; assay: as above; format: cell-based; conditions: Table 2 strain 6: Staphylococcus aureus 692 E
# [23] = test system: Staphylococcus aureus 707 E; assay: as above; format: cell-based
# [24] = test system: Pseudomonas aeruginosa 9027; assay: In vitro anti-bacterial activity test (MIC, two-fold dilution method) against the standard strains; format: cell-based; conditions: Table 1 strain 12: Pseudomonas aeruginosa 9027
# [25] = test system: Staphylococcus aureus 503; assay: as above; format: cell-based
# [26] = test system: Staphylococcus aureus 88 E; assay: In vitro anti-bacterial activity test (MIC, two-fold dilution method), Table 2 strains; format: cell-based; conditions: Table 2 strain 1: Staphylococcus aureus 88 E
# [27] = test system: Pseudomonas aeruginosa 1771; assay: In vitro anti-bacterial activity test (MIC, two-fold dilution method) against the standard strains; format: cell-based; conditions: Table 1 strain 14: Pseudomonas aeruginosa 1771
# [28] = test system: Staphylococcus aureus 706 E; assay: In vitro anti-bacterial activity test (MIC, two-fold dilution method), Table 2 strains; format: cell-based
# Escherichia coli OTEM = assay: In vitro anti-bacterial activity test (MIC, two-fold dilution method) against the standard strains; format: cell-based; conditions: Table 1 strain 10: Escherichia coli OTEM
# [29] = test system: Staphylococcus aureus 256 E; assay: In vitro anti-bacterial activity test (MIC, two-fold dilution method), Table 2 strains; format: cell-based; conditions: Table 2 strain 4: Staphylococcus aureus 256 E
# [30] = test system: Staphylococcus aureus SG 511; assay: In vitro anti-bacterial activity test (MIC, two-fold dilution method) against the standard strains; format: cell-based; conditions: SG511; Table 1 strain 4: Staphylococcus aureus SG 511
# [31] = test system: Staphylococcus aureus 708 E; assay: In vitro anti-bacterial activity test (MIC, two-fold dilution method), Table 2 strains; format: cell-based; conditions: Table 2 strain 16: Staphylococcus aureus 708 E
# [32] = test system: Staphylococcus aureus 725 E; assay: as above; format: cell-based
# [33] = test system: Enterobacter cloacae 1321 E; assay: In vitro anti-bacterial activity test (MIC, two-fold dilution method) against the standard strains; format: cell-based; conditions: Table 1 strain 20: Enterobacter cloacae 1321 E
# [34] = test system: Klebsiella aerogenes 1522 E; assay: as above; format: cell-based; conditions: Table 1 strain 18: Klebsiella aerogenes 1522 E
# Salmonella typhimurium = assay: as above; format: cell-based; conditions: Salmonella enterica; Table 1 strain 16: Salmonella typhimurium
# [35] = test system: Enterobacter cloacae P 99; assay: as above; format: cell-based; conditions: P99; Table 1 strain 19: Enterobacter cloacae P 99
compound,measurement,setting,value
"O=C(O)c1cn(C2CC2)c2cc(N3CCNCC3)c(F)cc2c1=O [Ciprofloxacin, ciprofloxacin, reference compound]",MIC,"[1]; Staphylococcus aureus, 694E",0.781 µg/mL
same,MIC,[2],0.098 µg/mL
same,MIC,[3],0.391 µg/mL
same,ED50,P. mirabilis; Oral Administration,0.82 mg/kg
same,ED50,"P. mirabilis; sc, Subcutaneous Injection",0.16 mg/kg
same,ED50,S. aureus 17740,> 200 mg/kg
same,MIC,"[4]; Staphylococcus aureus, 121E",0.781 µg/mL
same,MIC,Escherichia coli DC 2,0.195 µg/mL
same,MIC,"[5]; Staphylococcus aureus, 701E",0.781 µg/mL
same,MIC,Escherichia coli DC 0 [6],0.391 µg/mL
same,MIC,[7],0.781 µg/mL
same,MIC,"[8]; Staphylococcus aureus, 693E",0.781 µg/mL
same,MIC,"[9]; Staphylococcus aureus, 703E",0.781 µg/mL
same,MIC,"[10]; Streptococcus pyogenes, 77A",0.781 µg/mL
same,MIC,[11],3.12 µg/mL
same,MIC,"[12]; Staphylococcus aureus, 208E",0.781 µg/mL
same,MIC,"[13]; Staphylococcus aureus, 285",0.781 µg/mL
same,MIC,[14],0.007 µg/mL
same,MIC,"[15]; Staphylococcus aureus, 695E",0.781 µg/mL
same,MIC,Escherichia coli 1507 E,0.007 µg/mL
same,MIC,[16],0.391 µg/mL
same,MIC,"[17]; Staphylococcus aureus, 690E",0.781 µg/mL
same,MIC,"[18]; Staphylococcus aureus, 711E",0.781 µg/mL
same,MIC,Escherichia coli DC 0 [19],0.002 µg/mL
same,MIC,"[20]; Staphylococcus aureus, 714E",0.781 µg/mL
same,MIC,"[21]; Staphylococcus aureus, 705E",0.781 µg/mL
same,MIC,[22],0.391 µg/mL
same,MIC,"[23]; Staphylococcus aureus, 707E",0.781 µg/mL
same,MIC,[24],0.391 µg/mL
same,MIC,"[25]; Staphylococcus aureus, 503",0.781 µg/mL
same,MIC,[26],1.56 µg/mL
same,MIC,[27],0.391 µg/mL
same,MIC,"[28]; Staphylococcus aureus, 706E",0.781 µg/mL
same,MIC,Escherichia coli OTEM,0.007 µg/mL
same,MIC,[29],1.56 µg/mL
same,MIC,[30],0.195 µg/mL
same,MIC,[31],0.195 µg/mL
same,MIC,"[32]; Staphylococcus aureus, 725E",0.781 µg/mL
"Nc1c(F)c(N2CCC3(CC3N)C2)c(F)c2c1c(=O)c(C(=O)O)cn2C1CC1 (centres unmarked) [Example 7, 7-(1-amino-5-azaspiro[2,4]heptane-5-yl)-1-cyclopropyl-5-amino-6,8-difluoro-1,4-dihydro-4-oxo-quinoline-3-carboxylic acid]",MIC,"[1]; Table 2 strain 8: Staphylococcus aureus 694 E, read-out: MIC",0.025 µg/mL
same,MIC,[2],0.391 µg/mL
same,MIC,[3],0.013 µg/mL
same,MIC,[33],0.013 µg/mL
same,MIC,"[4]; Table 2 strain 2: Staphylococcus aureus 121 E, read-out: MIC",0.025 µg/mL
same,MIC,Escherichia coli DC 2,0.098 µg/mL
same,MIC,"[5]; Table 2 strain 11: Staphylococcus aureus 701 E, read-out: MIC",0.025 µg/mL
same,MIC,Escherichia coli DC 0 [6],0.391 µg/mL
same,MIC,"[7]; Table 1 strain 3: Streptococcus faecium MD 8b, read-out: MIC",0.391 µg/mL
same,MIC,"[8]; Table 2 strain 7: Staphylococcus aureus 693 E, read-out: MIC",0.013 µg/mL
same,MIC,"[9]; Table 2 strain 12: Staphylococcus aureus 703 E, read-out: MIC",0.025 µg/mL
same,MIC,"[10]; Table 1 strain 2: Streptococcus pyogenes 77 A, read-out: MIC",0.195 µg/mL
same,MIC,[11],0.391 µg/mL
same,MIC,"[12]; Table 2 strain 3: Staphylococcus aureus 208 E, read-out: MIC",0.025 µg/mL
same,MIC,"[13]; Table 1 strain 5: Staphylococcus aureus 285, read-out: MIC",0.025 µg/mL
same,MIC,[14],0.007 µg/mL
same,MIC,[34],0.098 µg/mL
same,MIC,Salmonella typhimurium,0.025 µg/mL
same,MIC,[35],0.025 µg/mL
same,MIC,"[15]; Table 2 strain 9: Staphylococcus aureus 695 E, read-out: MIC",0.013 µg/mL
same,MIC,Escherichia coli 1507 E,0.098 µg/mL
same,MIC,[16],1.56 µg/mL
same,MIC,"[17]; Table 2 strain 5: Staphylococcus aureus 690 E, read-out: MIC",0.013 µg/mL
same,MIC,"[18]; Table 2 strain 17: Staphylococcus aureus 711 E, read-out: MIC",0.007 µg/mL
same,MIC,Escherichia coli DC 0 [19],0.007 µg/mL
same,MIC,"[20]; Table 2 strain 18: Staphylococcus aureus 714 E, read-out: MIC",0.013 µg/mL
same,MIC,"[21]; Table 2 strain 13: Staphylococcus aureus 705 E, read-out: MIC",0.025 µg/mL
same,MIC,[22],0.013 µg/mL
same,MIC,"[23]; Table 2 strain 15: Staphylococcus aureus 707 E, read-out: MIC",0.025 µg/mL
same,MIC,[24],1.56 µg/mL
same,MIC,"[25]; Table 1 strain 6: Staphylococcus aureus 503, read-out: MIC",0.025 µg/mL
same,MIC,[26],0.098 µg/mL
same,MIC,[27],0.781 µg/mL
same,MIC,"[28]; Table 2 strain 14: Staphylococcus aureus 706 E, read-out: MIC",0.025 µg/mL
same,MIC,Escherichia coli OTEM,0.025 µg/mL
same,MIC,[29],0.025 µg/mL
same,MIC,[30],0.025 µg/mL
same,MIC,[31],0.007 µg/mL
same,MIC,"[32]; Table 2 strain 19: Staphylococcus aureus 725 E, read-out: MIC",0.025 µg/mL

# From patent EP0550016A1, “Novel quinolone carboxylic acid derivatives and processes for preparing same” (KOREA RESEARCH INSTITUTE OF CHEMICAL TECHNOLOGY, priority 1991, dated 1993)
